{
  "source": "paper PMC10913730",
  "about": "“Antimicrobial activity of a natural compound and analogs against multi-drug-resistant Gram-positive pathogens” (Microbiology Spectrum, 2024)",
  "key": {"[1]": {"assay": "pH and Ka of 10-g/L aqueous solutions (pH meter)", "assay_type": "physicochemical", "details": "10-g/L solution in distilled, deionized water, room temperature"}, "MRSA isolates": {"system": "MRSA isolates", "assay": "MIC/MBC, CLSI broth microdilution, MRSA isolates", "assay_type": "cell-based, Staphylococcus aureus", "details": "Staphylococcus aureus"}, "MRSA isolate TCH 1516": {"system": "MRSA isolate TCH 1516", "assay": "Resistance acquisition during serial passage", "assay_type": "cell-based, Staphylococcus aureus", "protocol": "MRSA isolate TCH 1516 was grown to the stationary phase (OD650 = 1.0) in 10 mL of MH broth. […] The second highest drug concentration resulting in bacterial growth (OD650 >1.0) was used as the inoculum after a 1:1,000 dilution for subsequent steps, every 24 hours, for up to 21 days."}, "[2]": {"details": "MRSA, 39 evaluated MRSA isolates, CLSI broth microdilution"}, "[3]": {"details": "MRSA, pH 7.4, MRSA 0606, pH 7.4"}, "[4]": {"details": "MRSA, pH 7.4, MRSA 0608, pH 7.4"}, "[5]": {"details": "MRSA, pH 7.4, MRSA 0634, pH 7.4"}, "[6]": {"details": "MRSA, pH 7.4, MRSA 0641, pH 7.4"}, "[7]": {"details": "MRSA, pH 7.4, MRSA 0646, pH 7.4"}, "[8]": {"details": "MRSA, read-out: MBC90, 39 evaluated MRSA isolates, CLSI broth microdilution"}, "[9]": {"details": "MRSA, pH 5.5, MRSA 0606, pH 5.5"}, "[10]": {"details": "MRSA, pH 5.5, MRSA 0608, pH 5.5"}, "[11]": {"details": "MRSA, pH 5.5, MRSA 0634, pH 5.5"}, "[12]": {"details": "MRSA, pH 5.5, MRSA 0641, pH 5.5"}, "[13]": {"details": "MRSA, pH 5.5, MRSA 0646, pH 5.5"}, "[14]": {"details": "MRSA, pH 6.5, MRSA 0606, pH 6.5"}, "[15]": {"details": "MRSA, pH 6.5, MRSA 0608, pH 6.5"}, "[16]": {"details": "MRSA, pH 6.5, MRSA 0634, pH 6.5"}, "[17]": {"details": "MRSA, pH 6.5, MRSA 0641, pH 6.5"}, "[18]": {"details": "MRSA, pH 6.5, MRSA 0646, pH 6.5"}},
  "note": "Like-named read-outs stand apart in the source and are kept apart here.",
  "data": [
    {"compound": "[K+].[K+].[O-]c1c(Cl)cc(Cl)cc1-c1cc(Cl)cc(Cl)c1[O-]", "note": "[C59K]", "values": [
      {"measurement": "pH of solution", "setting": "[1]", "result": "greater than 10"},
      {"measurement": "MIC90", "setting": "MRSA isolates; [2]", "result": 2, "unit": "µg/mL"},
      {"measurement": "MBC", "setting": "MRSA isolates; [3]", "result": 6, "unit": "µg/mL"},
      {"measurement": "MIC", "setting": "MRSA isolates; [3]", "result": 2, "unit": "µg/mL"},
      {"measurement": "MBC", "setting": "MRSA isolates; [4]", "result": 4, "unit": "µg/mL"},
      {"measurement": "MIC", "setting": "MRSA isolates; [4]", "result": 4, "unit": "µg/mL"},
      {"measurement": "MBC", "setting": "MRSA isolates; [5]", "result": 6, "unit": "µg/mL"},
      {"measurement": "MIC", "setting": "MRSA isolates; [5]", "result": 2, "unit": "µg/mL"},
      {"measurement": "MBC", "setting": "MRSA isolates; [6]", "result": 4, "unit": "µg/mL"},
      {"measurement": "MIC", "setting": "MRSA isolates; [6]", "result": 2, "unit": "µg/mL"},
      {"measurement": "MBC", "setting": "MRSA isolates; [7]", "result": 4, "unit": "µg/mL"},
      {"measurement": "MIC", "setting": "MRSA isolates; [7]", "result": 2, "unit": "µg/mL"},
      {"measurement": "MBC", "setting": "MRSA isolates; MRSA, pH 7.4, TCH 1516, pH 7.4", "result": 4, "unit": "µg/mL"},
      {"measurement": "MIC", "setting": "MRSA isolates; MRSA, pH 7.4, TCH 1516, pH 7.4", "result": 2, "unit": "µg/mL"},
      {"measurement": "MBC", "setting": "MRSA isolates; [8]", "result": 4, "unit": "µg/mL"}
    ]},
    {"compound": "[Li+].[Li+].[O-]c1c(Cl)cc(Cl)cc1-c1cc(Cl)cc(Cl)c1[O-]", "note": "[C59Li]", "values": [
      {"measurement": "pH of solution", "setting": "[1]", "result": "greater than 10"},
      {"measurement": "MIC90", "setting": "MRSA isolates; [2]", "result": 4, "unit": "µg/mL"},
      {"measurement": "MBC", "setting": "MRSA isolates; [9]", "result": 0.25, "unit": "µg/mL"},
      {"measurement": "MIC", "setting": "MRSA isolates; [9]", "result": 0.25, "unit": "µg/mL"},
      {"measurement": "MBC", "setting": "MRSA isolates; [10]", "result": 0.25, "unit": "µg/mL"},
      {"measurement": "MIC", "setting": "MRSA isolates; [10]", "result": 0.25, "unit": "µg/mL"},
      {"measurement": "MBC", "setting": "MRSA isolates; [11]", "result": 0.25, "unit": "µg/mL"},
      {"measurement": "MIC", "setting": "MRSA isolates; [11]", "result": 0.25, "unit": "µg/mL"},
      {"measurement": "MBC", "setting": "MRSA isolates; [12]", "result": 0.25, "unit": "µg/mL"},
      {"measurement": "MIC", "setting": "MRSA isolates; [12]", "result": 0.25, "unit": "µg/mL"},
      {"measurement": "MBC", "setting": "MRSA isolates; [13]", "result": 0.25, "unit": "µg/mL"},
      {"measurement": "MIC", "setting": "MRSA isolates; [13]", "result": 0.25, "unit": "µg/mL"},
      {"measurement": "MBC", "setting": "MRSA isolates; MRSA, pH 5.5, TCH 1516, pH 5.5", "result": 0.25, "unit": "µg/mL"},
      {"measurement": "MIC", "setting": "MRSA isolates; MRSA, pH 5.5, TCH 1516, pH 5.5", "result": 0.25, "unit": "µg/mL"},
      {"measurement": "MBC", "setting": "MRSA isolates; MRSA, pH 5.5, read-out: Average MBC, average of six MRSA isolates, pH 5.5", "result": 0.25, "unit": "µg/mL"},
      {"measurement": "MIC", "setting": "MRSA isolates; MRSA, pH 5.5, read-out: Average MIC, average of six MRSA isolates, pH 5.5", "result": 0.25, "unit": "µg/mL"},
      {"measurement": "MBC", "setting": "MRSA isolates; [14]", "result": 1, "unit": "µg/mL"},
      {"measurement": "MIC", "setting": "MRSA isolates; [14]", "result": 1, "unit": "µg/mL"},
      {"measurement": "MBC", "setting": "MRSA isolates; [15]", "result": 2, "unit": "µg/mL"},
      {"measurement": "MIC", "setting": "MRSA isolates; [15]", "result": 1, "unit": "µg/mL"},
      {"measurement": "MBC", "setting": "MRSA isolates; [16]", "result": 1, "unit": "µg/mL"},
      {"measurement": "MIC", "setting": "MRSA isolates; [16]", "result": 1, "unit": "µg/mL"},
      {"measurement": "MBC", "setting": "MRSA isolates; [17]", "result": 6, "unit": "µg/mL"},
      {"measurement": "MIC", "setting": "MRSA isolates; [17]", "result": 0.5, "unit": "µg/mL"},
      {"measurement": "MBC", "setting": "MRSA isolates; [18]", "result": 1, "unit": "µg/mL"},
      {"measurement": "MIC", "setting": "MRSA isolates; [18]", "result": 0.5, "unit": "µg/mL"},
      {"measurement": "MBC", "setting": "MRSA isolates; MRSA, pH 6.5, TCH 1516, pH 6.5", "result": 1, "unit": "µg/mL"},
      {"measurement": "MIC", "setting": "MRSA isolates; MRSA, pH 6.5, TCH 1516, pH 6.5", "result": 1, "unit": "µg/mL"},
      {"measurement": "MBC", "setting": "MRSA isolates; MRSA, pH 6.5, read-out: Average MBC, average of six MRSA isolates, pH 6.5", "result": 2, "unit": "µg/mL"},
      {"measurement": "MIC", "setting": "MRSA isolates; MRSA, pH 6.5, read-out: Average MIC, average of six MRSA isolates, pH 6.5", "result": 0.83, "unit": "µg/mL"},
      {"measurement": "MBC", "setting": "MRSA isolates; [3]", "result": 2, "unit": "µg/mL"},
      {"measurement": "MIC", "setting": "MRSA isolates; [3]", "result": 1, "unit": "µg/mL"},
      {"measurement": "MBC", "setting": "MRSA isolates; [4]", "result": 6, "unit": "µg/mL"},
      {"measurement": "MIC", "setting": "MRSA isolates; [4]", "result": 2, "unit": "µg/mL"},
      {"measurement": "MBC", "setting": "MRSA isolates; [5]", "result": 2, "unit": "µg/mL"},
      {"measurement": "MIC", "setting": "MRSA isolates; [5]", "result": 2, "unit": "µg/mL"},
      {"measurement": "MBC", "setting": "MRSA isolates; [6]", "result": 4, "unit": "µg/mL"},
      {"measurement": "MIC", "setting": "MRSA isolates; [6]", "result": 2, "unit": "µg/mL"},
      {"measurement": "MBC", "setting": "MRSA isolates; [7]", "result": 4, "unit": "µg/mL"},
      {"measurement": "MIC", "setting": "MRSA isolates; [7]", "result": 1, "unit": "µg/mL"},
      {"measurement": "MBC", "setting": "MRSA isolates; MRSA, pH 7.4, TCH 1516, pH 7.4", "result": 2, "unit": "µg/mL"},
      {"measurement": "MIC", "setting": "MRSA isolates; MRSA, pH 7.4, TCH 1516, pH 7.4", "result": 2, "unit": "µg/mL"},
      {"measurement": "MBC", "setting": "MRSA isolates; MRSA, pH 7.4, read-out: Average MBC, average of six MRSA isolates, pH 7.4", "result": 3.3, "unit": "µg/mL"},
      {"measurement": "MIC", "setting": "MRSA isolates; MRSA, pH 7.4, read-out: Average MIC, average of six MRSA isolates, pH 7.4", "result": 1.7, "unit": "µg/mL"},
      {"measurement": "MBC", "setting": "MRSA isolates; [8]", "result": 4, "unit": "µg/mL"}
    ]},
    {"compound": "CCC[C@@H]1C[C@@H](C(=O)N[C@@H]([C@H]2O[C@H](SC)[C@H](O)[C@@H](O)[C@H]2O)[C@H](C)Cl)N(C)C1", "note": "[Clindamycin, clindamycin, reference compound]", "values": [
      {"measurement": "MBC", "setting": "MRSA isolates; 39 evaluated MRSA isolates, CLSI broth microdilution, read-out: MBC90", "result": "> 32", "unit": "µg/mL"},
      {"measurement": "MIC90", "setting": "MRSA isolates; 39 evaluated MRSA isolates, CLSI broth microdilution, read-out: MIC90", "result": "> 32", "unit": "µg/mL"},
      {"measurement": "MIC", "setting": "MRSA isolate TCH 1516; Staphylococcus aureus, MRSA, 408 h, read-out: MIC after serial passage", "result": 32, "unit": "µg/mL"},
      {"measurement": "increase in MIC", "setting": "MRSA isolate TCH 1516; serial passage, after 17 days", "result": 256, "unit": "fold"}
    ]}
  ]
}
